pIC50: −log10 of the molar value.
Legend:
CDK4 = target: T1, CDK4 (Homo sapiens, UniProt P11802); experiment: luminescence kinase activity assay (BPS Bioscience CDK4/CyclinD3 kit #[…]); format: biochemical
T1 construct: purified recombinant CDK4/CyclinD3; with CyclinD3

CDK6 = target: T2, CDK6 (Homo sapiens, UniProt Q00534); experiment: luminescence kinase activity assay (BPS Bioscience CDK6/CyclinD3 kit #[…]); format: biochemical
T2 construct: purified recombinant CDK6/CyclinD3; with CyclinD3
T2 sequence (Q00534 whole entry): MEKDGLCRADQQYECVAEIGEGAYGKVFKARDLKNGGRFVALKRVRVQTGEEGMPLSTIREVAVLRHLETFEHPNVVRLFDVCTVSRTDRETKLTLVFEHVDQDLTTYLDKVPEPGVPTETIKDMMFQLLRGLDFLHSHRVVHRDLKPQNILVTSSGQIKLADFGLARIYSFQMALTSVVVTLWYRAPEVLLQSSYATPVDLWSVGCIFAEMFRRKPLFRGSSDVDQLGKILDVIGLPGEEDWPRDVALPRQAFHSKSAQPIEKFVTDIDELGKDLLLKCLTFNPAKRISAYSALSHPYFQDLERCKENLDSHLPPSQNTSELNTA
T2 sequence (P30281 whole entry partner): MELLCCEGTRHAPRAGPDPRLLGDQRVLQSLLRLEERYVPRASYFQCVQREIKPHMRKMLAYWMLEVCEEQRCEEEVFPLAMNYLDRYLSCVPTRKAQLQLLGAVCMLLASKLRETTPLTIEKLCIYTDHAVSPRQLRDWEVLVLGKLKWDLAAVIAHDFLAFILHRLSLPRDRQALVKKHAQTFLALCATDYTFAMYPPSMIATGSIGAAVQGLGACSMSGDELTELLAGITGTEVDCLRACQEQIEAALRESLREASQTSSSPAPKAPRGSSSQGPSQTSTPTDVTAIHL

T1 sequence (P11802 2-303): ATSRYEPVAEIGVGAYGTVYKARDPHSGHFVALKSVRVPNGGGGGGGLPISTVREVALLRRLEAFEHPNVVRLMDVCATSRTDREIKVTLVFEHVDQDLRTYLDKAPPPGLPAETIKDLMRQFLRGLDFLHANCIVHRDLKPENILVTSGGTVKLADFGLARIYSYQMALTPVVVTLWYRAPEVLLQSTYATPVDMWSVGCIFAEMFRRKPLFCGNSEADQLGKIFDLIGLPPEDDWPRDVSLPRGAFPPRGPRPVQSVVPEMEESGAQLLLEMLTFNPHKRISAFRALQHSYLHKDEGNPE
T1 sequence (P30281 whole entry partner): as the sequence (P30281 whole entry partner) above

CC(C)n1cnc2c(F)cc(-c3nc(Nc4ccc(CN5CCN(Cc6ccc(F)cc6)CC5)cn4)ncc3F)cc21 [NT431, 5-fluoro-4-(4-fluoro-1-isopropyl-1H-benzo[d]imidazol-6-yl)-N-(5-((4-(4-fluorobenzyl)piperazin-1-yl)methyl)pyridin-2-yl)pyrimidin-2-amine]
pIC50 (CDK4): 7.63
pIC50 (CDK6): 7.33
